Here are results for 18 compounds from ChEMBL document CHEMBL2311340, “Chemical constituents from the fruit of Gardenia jasminoides and their inhibitory effects on nitric oxide production” (Bioorg Med Chem Lett, 2013).

Each structure is given as a SMILES string.

The IC50 is the concentration needed to halve the response being measured. Low values mean inhibition by little substance, high ones a need for much substance.

This assay has as its system RAW264.7. Description: Inhibition of nitric oxide production in lipopolysaccharide-activated mouse RAW264.7 cells by Griess reaction based method. The format is functional, cell-based. On the technique in general: The Griess reaction detects nitrite, a stable product of nitric oxide.
Regarding `COC(=O)C1=CO[C@@H](O[C@@H]2O[C@H](CO[C@@H]3O[C@@H](C)[C@H](O)[C@@H](O)[C@H]3O)[C@@H](O)[C@H](O)[C@H]2O)[C@@H]2C(CO)=CC[C@H]12`, the IC50 was above 100 µM.

Compound `COC(=O)C1=CO[C@@H](O[C@@H]2O[C@H](CO[C@H]3O[C@H](CO)[C@@H](O)[C@H](O)[C@H]3O)[C@@H](O)[C@H](O)[C@H]2O)[C@@H]2C(CO)=CC[C@H]12` showed an IC50 above 100 µM.

For the compound `CC1=CC(=O)CC(C)(C)[C@H]1CO[C@@H]1O[C@H](CO[C@@H]2OC[C@](O)(CO)[C@H]2O)[C@@H](O)[C@H](O)[C@H]1O` [JASMINOSIDE T], the IC50 is above 100 µM.

`COC(=O)C1=CO[C@@H](O[C@@H]2O[C@H](CO)[C@@H](O)[C@H](O)[C@H]2O)[C@@H]2C(CO[C@@H]3O[C@H](CO)[C@@H](O)[C@H](O)[C@H]3O)=CC[C@H]12` [GENAMESIDE D] gave an IC50 above 100 µM.

`COC(=O)C1=CO[C@@H](O)[C@@H]2C(CO)=C[C@@H](O)[C@H]12` showed an IC50 of 28.7 µM.

Compound `CC1=C(C(=O)O[C@@H]2O[C@H](CO[C@@H]3O[C@H](CO)[C@@H](O)[C@H](O)[C@H]3O)[C@@H](O)[C@H](O)[C@H]2O)C(C)(C)CC=C1` [JASMINOSIDE R] registered a half-maximal inhibitory concentration (IC50) above 100 µM.

On to `COC(=O)C1=CO[C@@H](O[C@@H]2O[C@H](CO[C@H]3OC[C@@H](O)[C@H](O)[C@H]3O)[C@@H](O)[C@H](O)[C@H]2O)[C@@H]2C(CO)=CC[C@H]12`, for which the IC50 was above 100 µM.

The compound `COC(=O)C1=CO[C@@H](O[C@@H]2O[C@H](CO[C@@H]3O[C@H](CO)[C@@H](O)[C@H](O)[C@H]3O)[C@@H](O)[C@H](O)[C@H]2O)[C@@H]2C(CO)=CC[C@H]12` [GENIPIN GENTIOBIOSIDE] displayed a half-inhibitory concentration (IC50) above 100 µM.

As for `COC(=O)C1=CO[C@@H](O[C@@H]2O[C@H](CO)[C@@H](O[C@@H]3O[C@H](CO)[C@@H](O)[C@H](O)[C@H]3O)[C@H](O)[C@H]2O)[C@@H]2C(CO)=CC[C@H]12` [GENAMESIDE C], the concentration for half-maximal inhibition (IC50) is above 100 µM.

Consider `CC(/C=C/C=C(\C)C(=O)O)=C\C=C\C=C(C)\C=C\C=C(/C)C(=O)O` [TRANSCROCETIN], for which the half-inhibitory concentration (IC50) came out at 5.99 µM.

Compound `COC(=O)C1=CO[C@@H](O[C@@H]2O[C@H](CO[C@@H]3OC[C@](O)(CO)[C@H]3O)[C@@H](O)[C@H](O)[C@H]2O)[C@@H]2C(CO)=CC[C@H]12` came in with an IC50 above 100 µM.

In the case of `COC(=O)C1=CO[C@@H](O[C@@H]2O[C@H](CO)[C@@H](O)[C@H](O)[C@H]2O)[C@@H]2C(CO)=CC[C@H]12` [GENIPOSIDE], the concentration for half-maximal inhibition (IC50) was above 100 µM.

With `COC(=O)C1=CO[C@@H](O[C@@H]2O[C@H](CO)[C@@H](O)[C@H](O)[C@H]2O)[C@@H]2C(CO)=C[C@@H](O)[C@H]12`, the 50% inhibitory concentration (IC50) is above 100 µM.

As for `CC(/C=C/C=C(\C)C(=O)O[C@@H]1O[C@H](CO[C@@H]2O[C@H](CO)[C@@H](O)[C@H](O)[C@H]2O)[C@@H](O)[C@H](O)[C@H]1O)=C\C=C\C=C(C)\C=C\C=C(/C)C(=O)O[C@@H]1O[C@H](CO[C@@H]2O[C@H](CO)[C@@H](O)[C@H](O)[C@H]2O)[C@@H](O)[C@H](O)[C@H]1O` [CROCIN], the concentration for half-maximal inhibition (IC50) was above 100 µM.

Turning to `CC1=C(C(=O)O[C@@H]2O[C@H](CO[C@@H]3O[C@H](CO)[C@@H](O)[C@H](O)[C@H]3O)[C@@H](O)[C@H](O)[C@H]2O)C(C)(C)CCC1` [JASMINOSIDE S], the IC50 was above 100 µM.

Consider `COC(=O)C1=CO[C@@H](O[C@@H]2O[C@H](CO[C@@H]3O[C@H](COC(=O)/C=C/c4ccc(O)c(O)c4)[C@@H](O)[C@H](O)[C@H]3O)[C@@H](O)[C@H](O)[C@H]2O)[C@@H]2C(CO)=CC[C@H]12`, for which the IC50 was above 100 µM.

As for `CC(/C=C/C=C(\C)C(=O)O[C@@H]1O[C@H](CO)[C@@H](O)[C@H](O)[C@H]1O)=C\C=C\C=C(C)\C=C\C=C(/C)C(=O)O[C@@H]1O[C@H](CO[C@@H]2O[C@H](CO)[C@@H](O)[C@H](O)[C@H]2O)[C@@H](O)[C@H](O)[C@H]1O`, the concentration for half-maximal inhibition (IC50) was above 100 µM.

For the compound `COC(=O)C1=CO[C@@H](O)[C@@H]2C(CO)=CC[C@H]12` [GENIPIN], half-maximal inhibition (IC50) required 11.1 µM.
